From patent US10758534B2 (Vertex Pharmaceuticals Incorporated, priority 2014, dated 2020)

Target: T1, F508del (Homo sapiens, UniProt P13569, DEL508-508)
T1 construct: expressed in transfected cells
Assay: Protocol 2: FRET membrane potential optical assay (VIPR), identification of correction compounds
Format: cell-based
Conditions: F508del CFTR modulator activity; compounds of Table 1; read-out: EC30
Summary of the method: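 Corrector readout: membrane-potential FRET (CC2-DMPE donor, DiSBAC2(3) acceptor) on VIPR II after Cl⁻-free gluconate bath with 10 μM forskolin and 20 μM genistein. Before this, F508del-expressing NIH3T3 cells were exposed to test compound for 16 h at 37 °C without serum; 27 °C incubation served as temperature-correction control.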

T1 sequence (P13569 with tags, fused parts or gaps DEL508-508): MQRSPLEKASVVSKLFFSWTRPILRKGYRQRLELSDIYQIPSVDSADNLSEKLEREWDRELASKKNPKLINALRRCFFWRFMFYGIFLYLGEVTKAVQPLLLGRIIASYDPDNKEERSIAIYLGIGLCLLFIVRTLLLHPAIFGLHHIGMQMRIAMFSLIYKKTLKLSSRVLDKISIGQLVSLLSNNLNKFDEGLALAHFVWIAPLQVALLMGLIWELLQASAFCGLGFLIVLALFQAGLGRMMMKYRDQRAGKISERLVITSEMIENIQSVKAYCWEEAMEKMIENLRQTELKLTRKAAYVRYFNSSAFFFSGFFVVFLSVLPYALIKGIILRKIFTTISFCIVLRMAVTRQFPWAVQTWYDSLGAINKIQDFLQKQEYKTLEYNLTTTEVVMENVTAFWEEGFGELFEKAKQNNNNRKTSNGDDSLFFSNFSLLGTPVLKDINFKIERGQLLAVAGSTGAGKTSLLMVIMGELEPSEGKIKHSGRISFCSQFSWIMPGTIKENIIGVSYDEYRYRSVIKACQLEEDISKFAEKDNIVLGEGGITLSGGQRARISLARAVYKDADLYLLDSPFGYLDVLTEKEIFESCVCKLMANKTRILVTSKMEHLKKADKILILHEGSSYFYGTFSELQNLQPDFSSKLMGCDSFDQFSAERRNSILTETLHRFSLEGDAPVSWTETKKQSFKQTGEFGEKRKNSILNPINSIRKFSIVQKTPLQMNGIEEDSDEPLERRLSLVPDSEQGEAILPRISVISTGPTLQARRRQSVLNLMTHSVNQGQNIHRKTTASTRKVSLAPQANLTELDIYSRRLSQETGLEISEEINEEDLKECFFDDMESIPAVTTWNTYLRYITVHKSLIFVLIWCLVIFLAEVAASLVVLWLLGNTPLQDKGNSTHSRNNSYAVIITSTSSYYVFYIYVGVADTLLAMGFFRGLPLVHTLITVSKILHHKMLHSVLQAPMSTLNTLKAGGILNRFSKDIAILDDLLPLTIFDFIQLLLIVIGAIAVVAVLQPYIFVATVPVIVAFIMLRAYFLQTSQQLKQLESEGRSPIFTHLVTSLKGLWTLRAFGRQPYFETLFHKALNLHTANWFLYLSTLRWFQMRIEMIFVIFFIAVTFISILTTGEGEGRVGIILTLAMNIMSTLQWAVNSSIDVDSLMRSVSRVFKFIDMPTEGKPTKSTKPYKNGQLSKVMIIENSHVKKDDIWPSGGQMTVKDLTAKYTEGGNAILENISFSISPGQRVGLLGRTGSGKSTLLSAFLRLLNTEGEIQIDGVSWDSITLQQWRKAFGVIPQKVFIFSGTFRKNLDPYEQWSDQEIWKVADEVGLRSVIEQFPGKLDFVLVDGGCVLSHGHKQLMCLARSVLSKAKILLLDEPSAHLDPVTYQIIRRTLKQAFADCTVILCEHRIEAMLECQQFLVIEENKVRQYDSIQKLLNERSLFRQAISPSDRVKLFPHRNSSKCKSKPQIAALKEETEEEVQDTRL

| Compound | EC30 [nM] |
| --- | --- |
| CC1CN(c2ncccc2C(=O)NS(=O)(=O)c2cccc(Nc3ccc(F)c(F)c3)n2)C(C)(C)C1 (stereo not drawn) [Compound 2341, N—[[6-(3,4-difluoroanilino)-2-pyridyl]sulfonyl]-2-(2,2,4-trimethylpyrrolidin-1-yl)pyridine-3-carboxamide] | < 3000 |
| CC1CN(c2ncccc2C(=O)NS(=O)(=O)c2cccc(OCC3CC3)n2)C(C)(C)C1 (stereo not drawn) [Compound 2342, N—[[6-(cyclopropylmethoxy)-2-pyridyl]sulfonyl]-2-(2,2,4-trimethylpyrrolidin-1-yl)pyridine-3-carboxamide] | < 3000 |
| CCCN(CCOC)c1cccc(S(=O)(=O)NC(=O)c2cccnc2N2CC(C)CC2(C)C)n1 (stereo not drawn) [Compound 2343, N—[[6-[2-methoxyethyl(propyl)amino]-2-pyridyl]sulfonyl]-2-(2,2,4-trimethylpyrrolidin-1-yl)pyridine-3-carboxamide] | < 3000 |
| C[C@@H]1CN(c2nc(C(C)(C)C)c(C3=CCN(C(=O)CC(C)(C)C)CC3)cc2C(=O)NS(=O)(=O)c2cccc(N)n2)C(C)(C)C1 [Compound 2344, N-[(6-amino-2-pyridyl)sulfonyl]-6-tert-butyl-5-[1-(3,3-dimethylbutanoyl)-3,6-dihydro-2H-pyridin-4-yl]-2-[(4S)-2,2,4-trimethylpyrrolidin-1-yl]pyridine-3-carboxamide] | < 3000 |
| Cc1ccc(-c2ccc(C(=O)NS(=O)(=O)c3cccnc3N)c(N3C[C@@H](C)CC3(C)C)n2)cc1F [Compound 2345, N-[(2-amino-3-pyridyl)sulfonyl]-6-(3-fluoro-4-methyl-phenyl)-2-[(4S)-2,2,4-trimethylpyrrolidin-1-yl]pyridine-3-carboxamide] | < 3000 |
| CC(C)CCN(C)c1cccc(S(=O)(=O)NC(=O)c2cccnc2N2CC(C)CC2(C)C)n1 (stereo not drawn) [Compound 2346, N—[[6-[isopentyl(methyl)amino]-2-pyridyl]sulfonyl]-2-(2,2,4-trimethylpyrrolidin-1-yl)pyridine-3-carboxamide] | < 3000 |
| CC(C)COc1cc(F)cc(-c2ccc(C(=O)NS(=O)(=O)N3C[C@H]4C[C@@H]3CO4)c(N3C[C@@H](C)CC3(C)C)n2)c1 [Compound 2347, 6-(3-fluoro-5-isobutoxy-phenyl)-N—[[(1R,4R)-2-oxa-5-azabicyclo[2.2.1]heptan-5-yl]sulfonyl]-2-[(4S)-2,2,4-trimethylpyrrolidin-1-yl]pyridine-3-carboxamide] | < 3000 |
| Cc1cc(F)cc(-c2ccc(C(=O)NS(=O)(=O)c3ccc[nH]c3=O)c(N3C[C@@H](C)CC3(C)C)n2)c1 [Compound 2348, 6-(3-fluoro-5-methyl-phenyl)-N-[(2-oxo-1H-pyridin-3-yl)sulfonyl]-2-[(4S)-2,2,4-trimethylpyrrolidin-1-yl]pyridine-3-carboxamide] | < 3000 |
| C[C@@H]1CN(c2nc(-c3cc(O)cc(F)c3)ccc2C(=O)NS(=O)(=O)c2cccnc2N)C(C)(C)C1 [Compound 2349, N-[(2-amino-3-pyridyl)sulfonyl]-6-(3-fluoro-5-hydroxy-phenyl)-2-[(4S)-2,2,4-trimethylpyrrolidin-1-yl]pyridine-3-carboxamide] | 3000 to 10000 |
| CC1CN(c2ncccc2C(=O)NS(=O)(=O)c2cccc(NCC(F)F)n2)C(C)(C)C1 (stereo not drawn) [Compound 2350, N—[[6-(2,2-difluoroethylamino)-2-pyridyl]sulfonyl]-2-(2,2,4-trimethylpyrrolidin-1-yl)pyridine-3-carboxamide] | 3000 to 10000 |
| C[C@@H]1CN(c2nc(C3CCCCO3)ccc2C(=O)NS(=O)(=O)c2cccnc2N)C(C)(C)C1 (stereo partly drawn) [Compound 2351, N-[(2-amino-3-pyridyl)sulfonyl]-6-tetrahydropyran-2-yl-2-[(4S)-2,2,4-trimethylpyrrolidin-1-yl]pyridine-3-carboxamide] | < 3000 |
| C[C@@H]1CN(c2nc(-c3ccc4c(ccn4C)c3)ccc2C(=O)NS(=O)(=O)c2cccnc2N)C(C)(C)C1 [Compound 2352, N-[(2-amino-3-pyridyl)sulfonyl]-6-(1-methylindol-5-yl)-2-[(4S)-2,2,4-trimethylpyrrolidin-1-yl]pyridine-3-carboxamide] | < 3000 |
| CC1CN(c2ncccc2C(=O)NS(=O)(=O)c2cccc(Nc3cccc(OC(C)C)c3)n2)C(C)(C)C1 (stereo not drawn) [Compound 2353, N—[[6-(3-isopropoxyanilino)-2-pyridyl]sulfonyl]-2-(2,2,4-trimethylpyrrolidin-1-yl)pyridine-3-carboxamide] | < 3000 |
| CCOCCNc1cccc(S(=O)(=O)NC(=O)c2cccnc2N2CC(C)CC2(C)C)n1 (stereo not drawn) [Compound 2354, N—[[6-(2-ethoxyethylamino)-2-pyridyl]sulfonyl]-2-(2,2,4-trimethylpyrrolidin-1-yl)pyridine-3-carboxamide] | 3000 to 10000 |
| COc1c(F)cccc1-c1ccc(C(=O)NS(=O)(=O)c2cccnc2N)c(N2C[C@@H](C)CC2(C)C)n1 [Compound 2355, N-[(2-amino-3-pyridyl)sulfonyl]-6-(3-fluoro-2-methoxy-phenyl)-2-[(4S)-2,2,4-trimethylpyrrolidin-1-yl]pyridine-3-carboxamide] | < 3000 |
| COc1cc(F)ccc1-c1ccc(C(=O)NS(=O)(=O)c2ccc[nH]c2=O)c(N2C[C@@H](C)CC2(C)C)n1 [Compound 2356, 6-(4-fluoro-2-methoxy-phenyl)-N-[(2-oxo-1H-pyridin-3-yl)sulfonyl]-2-[(4S)-2,2,4-trimethylpyrrolidin-1-yl]pyridine-3-carboxamide] | < 3000 |
| CC1CN(c2ncccc2C(=O)NS(=O)(=O)c2cccc(OC3CCC3)n2)C(C)(C)C1 (stereo not drawn) [Compound 2371, N—[[6-(cyclobutoxy)-2-pyridyl]sulfonyl]-2-(2,2,4-trimethylpyrrolidin-1-yl)pyridine-3-carboxamide] | < 3000 |

The next lines start with the values.

| EC30 [nM] | Compound |
| --- | --- |
| < 3000 | COc1cc(Nc2cccc(S(=O)(=O)NC(=O)c3cccnc3N3CC(C)CC3(C)C)n2)cc(OC)c1 (stereo not drawn) [Compound 2357, N—[[6-(3,5-dimethoxyanilino)-2-pyridyl]sulfonyl]-2-(2,2,4-trimethylpyrrolidin-1-yl)pyridine-3-carboxamide] |
| 3000 to 10000 | CC1CN(c2ncccc2C(=O)NS(=O)(=O)c2cccc(NCCc3ccccn3)n2)C(C)(C)C1 (stereo not drawn) [Compound 2359, N—[[6-[2-(2-pyridyl)ethylamino]-2-pyridyl]sulfonyl]-2-(2,2,4-trimethylpyrrolidin-1-yl)pyridine-3-carboxamide] |
| 3000 to 10000 | CC(C)Oc1ccn(-c2ccc(C(=O)NS(=O)(=O)c3ccc[nH]c3=O)c(N3C[C@@H](C)CC3(C)C)n2)n1 [Compound 2360, 6-(3-isopropoxypyrazol-1-yl)-N-[(2-oxo-1H-pyridin-3-yl)sulfonyl]-2-[(4S)-2,2,4-trimethylpyrrolidin-1-yl]pyridine-3-carboxamide] |
| < 3000 | CC1CC=C(c2cnc(N3CC(C)CC3(C)C)c(C(=O)NS(=O)(=O)c3cccc(N)n3)c2)CC1 (stereo not drawn) [Compound 2361, N-[(6-amino-2-pyridyl)sulfonyl]-5-(4-methylcyclohexen-1-yl)-2-(2,2,4-trimethylpyrrolidin-1-yl)pyridine-3-carboxamide] |
| < 3000 | Cc1ccc(-c2ccc(C(=O)NS(=O)(=O)c3cccc(N)n3)c(N3CC(C)CC3(C)C)n2)nc1NCC(C)C (stereo not drawn) [Compound 2362, N-[(6-amino-2-pyridyl)sulfonyl]-6-[6-(isobutylamino)-5-methyl-2-pyridyl]-2-(2,2,4-trimethylpyrrolidin-1-yl)pyridine-3-carboxamide] |
| 3000 to 10000 | Cc1ccc(-c2ccc(C(=O)NS(=O)(=O)c3cccnc3N)c(N3C[C@@H](C)CC3(C)C)n2)cn1 [Compound 2363, N-[(2-amino-3-pyridyl)sulfonyl]-6-(6-methyl-3-pyridyl)-2-[(4S)-2,2,4-trimethylpyrrolidin-1-yl]pyridine-3-carboxamide] |
| < 3000 | CCOc1cc(-c2ccc(C(=O)NS(=O)(=O)c3cccc(N)n3)c(N3C[C@@H](C)CC3(C)C)n2)cc(C)n1 [Compound 2364, N-[(6-amino-2-pyridyl)sulfonyl]-6-(2-ethoxy-6-methyl-4-pyridyl)-2-[(4S)-2,2,4-trimethylpyrrolidin-1-yl]pyridine-3-carboxamide] |
| < 3000 | CC1CN(c2ncccc2C(=O)NS(=O)(=O)c2cccc(NCc3cccc(C(F)(F)F)n3)n2)C(C)(C)C1 (stereo not drawn) [Compound 2365, N—[[6-[[6-(trifluoromethyl)-2-pyridyl]methylamino]-2-pyridyl]sulfonyl]-2-(2,2,4-trimethylpyrrolidin-1-yl)pyridine-3-carboxamide] |
| < 3000 | C[C@@H]1CN(c2nc(-c3cccc(OC(F)(F)F)c3)ccc2C(=O)NS(=O)(=O)c2cccc(N)n2)C(C)(C)C1 [Compound 2366, N-[(6-amino-2-pyridyl)sulfonyl]-6-[3-(trifluoromethoxy)phenyl]-2-[(4S)-2,2,4-trimethylpyrrolidin-1-yl]pyridine-3-carboxamide] |
| < 3000 | C[C@@H]1CN(c2nc(-c3ccc(Cl)cc3)ccc2C(=O)NS(=O)(=O)c2cccnc2N)C(C)(C)C1 [Compound 2367, N-[(2-amino-3-pyridyl)sulfonyl]-6-(4-chlorophenyl)-2-[(4S)-2,2,4-trimethylpyrrolidin-1-yl]pyridine-3-carboxamide] |
| < 3000 | CC(C)c1ccc(-c2ccc(C(=O)NS(=O)(=O)c3cccnc3N)c(N3C[C@@H](C)CC3(C)C)n2)cc1 [Compound 2368, N-[(2-amino-3-pyridyl)sulfonyl]-6-(4-isopropylphenyl)-2-[(4S)-2,2,4-trimethylpyrrolidin-1-yl]pyridine-3-carboxamide] |
| < 3000 | COc1ccc(-c2ccc(C(=O)NS(=O)(=O)c3ccc[nH]c3=O)c(N3C[C@@H](C)CC3(C)C)n2)cc1C [Compound 2369, 6-(4-methoxy-3-methyl-phenyl)-N-[(2-oxo-1H-pyridin-3-yl)sulfonyl]-2-[(4S)-2,2,4-trimethylpyrrolidin-1-yl]pyridine-3-carboxamide] |
| < 3000 | C[C@@H]1CN(c2nc(C(C)(C)C)c(C(O)C(O)C(C)(C)C)cc2C(=O)NS(=O)(=O)c2cccc(N)n2)C(C)(C)C1 (stereo partly drawn) [Compound 2370] |
